This is an account of results in patent US8372455B2, “Cosmetic composition with anti-free radical activity” (LVMH Recherche, priority 2006, dated 2013).

The experiment concerns human keratinocytes (HaCaT). Nature of the experiment: Antioxidizing power (free radical scavenging) in H2O2-treated keratinocytes with the DCFH-DA fluorescent probe. It is filed as cell-based. As to conditions: 24 h treatment, 0.05 mg/ml ebselen, extract of Emblica, extract of Edelweiss, 0.1 μg/ml tocotrienol, idebenone, N-acetylcysteine, N=6, FIG. 1. From the text: To do this, the inventors used an in vitro test on a model of human keratinocytes, which consisted in the in situ generation of free radicals in the presence and absence of substances with anti-free radical activity, and then in quantification, with the aid of a fluorescent probe of the type dichlorofluorescein diacetate (DCFH-DA), of the free radicals still present in the cells. This probe is well known to those skilled in the art and its use makes it possible to measure the amount of free radicals present as a function of the fluorescence signal emitted.
The antioxidizing power according to the invention, which corresponds in practice to the free radical scavenging power of each substance with anti-free radical activity or an association of such substances, is obtained using the following formula (A): antioxidizing power=([…])×100 (A) in which: Δ control=difference in fluorescence values between the control not treated with an active substance or an association of such substances, and the control treated with the reference oxidizing agent hydrogen peroxide (H2O2); Δ test=difference in fluorescence values between the control treated with an active substance or an association of active substances, and the control treated with H2O2.
In practice, the value of Δ control represents the situation where the oxidation is greatest. This value is to be considered as that of 100% oxidation. It is then possible, by taking the ratio ([…])×100, to determine the percentage oxidation in the presence of an active substance or an association of such active substances. The antioxidizing power can then be calculated as the difference from the maximum value of 100, corresponding to application of the above formula. […]
The fluorescence emitted is then directly proportional to the concentration of free radicals that has reacted in the medium.
Thus, in the presence of a substance with anti-free radical activity, the DCFH present in the medium encounters fewer free radicals and the value of the fluorescence signal emitted decreases as a consequence. […]
Regarding alpha-tocotrienol, the “protective power (antioxidizing power) of individual substances with anti-free radical activity” value was “relatively high protective power”. Take `COC1=C(OC)C(=O)C(CCCCCCCCCCO)=C(C)C1=O` [idebenone, 2,3-dimethoxy-6-(10-hydroxydecyl)-5-methyl-1,4-benzo-quinone]: the “protective power (antioxidizing power) of individual substances with anti-free radical activity” value is “weakly protective”. Turning to `CC(=O)N[C@@H](CS)C(=O)O` [N-acetylcysteine], the “protective power (antioxidizing power) of individual substances with anti-free radical activity” value is on record as “weakly protective”.
